{
  "source": "patent US20160000734A1",
  "about": "“METHOD AND COMPOSITIONS OF CIVAMIDE TO TREAT DISEASE OF THE INTESTINES” (WINSTON LABORATORIES, INC., priority 2010, published 2016)",
  "key": {"hot-plate animal model": {"test_system": "hot-plate animal model", "details": "oral civamide; cited from earlier work"}, "Formalin animal model": {"test_system": "Formalin animal model", "details": "oral civamide; cited from earlier work"}, "[1]": {"details": "dogs; cited from earlier work"}, "normal volunteers": {"test_system": "normal volunteers", "assay": "Abdominal distress / gastrointestinal discomfort after oral capsules in normal human volunteers", "format": "in vivo", "details": "soft gel capsules (not enteric coated)"}, "Chung animal model": {"test_system": "Chung animal model", "details": "oral civamide; cited from earlier work"}, "[2]": {"details": "cited from earlier work; for efficacy in painful, inflammatory or allergic disorders: compared with capsaicin compositions; for localized burning and stinging / local adverse effects: compared with capsaicin"}, "[3]": {"details": "rodents; cited from earlier work"}},
  "note": "Read-outs that look alike come from different tables or passages of the source.",
  "data": [
    {"smiles": "COc1cc(CNC(=O)CCCC/C=C\\C(C)C)ccc1O", "note": "[civamide, cis-8-methyl-N-vanillyl-6-nonenamide]", "values": [
      {"measurement": "analgesia", "setting": "hot-plate animal model", "result": "effective analgesia"},
      {"measurement": "analgesia", "setting": "Formalin animal model", "result": "effective analgesia"},
      {"measurement": "absorption of an administered oral dose", "setting": "[1]", "result": "8-12%"},
      {"measurement": "abdominal distress / local burning and discomfort in the gastrointestinal tract", "setting": "normal volunteers", "result": "more local burning and discomfort in the gastrointestinal tract than comparable dosages of capsaicin"},
      {"measurement": "analgesia", "setting": "Chung animal model", "result": "effective analgesia"},
      {"measurement": "efficacy in painful, inflammatory or allergic disorders", "setting": "[2]", "result": "comparable in efficacy"},
      {"measurement": "efficacy in painful, inflammatory or allergic disorders", "setting": "[2]; listed as Civamide", "result": "effective"},
      {"measurement": "localized burning and stinging / local adverse effects", "setting": "[2]", "result": "significantly less local adverse effects"},
      {"measurement": "localized burning and stinging / local adverse effects", "setting": "[2]; listed as Civamide", "result": "significantly less of the localized burning and stinging"},
      {"measurement": "absorption of an administered oral dose", "setting": "[3]", "result": "8-12%"}
    ]}
  ]
}
